# Patent US20260022118A1, “HETEROCYCLIC COMPOUNDS AS NRAS INHIBITORS” (Board of Regents, The University of Texas System, priority 2023, published 2026)
# Like-named read-outs stand apart in the source and are kept apart here.
# System: THP-1 cells expressing G12D (NRAS G12D)
# Assay: Inhibition of NRAS G12D-mediated phosphorylation of ERK (AlphaLISA p-ERK1/2) in THP-1 cells
# Type: cell-based
# Conditions: 2 hours incubation, HBSS with 0% or 10% FBS, p-ERK1/2 (Thr202/Tyr204) AlphaLISA, read-out: pERK THP-1 IC50
# Experimental: Inhibition of NRAS G12D-Mediated Phosphorylation of ERK by Exemplary Compounds of Formulas I, II, and III.
# This Example illustrates that exemplary compounds and salts thereof described herein inhibit the phosphorylation of ERK downstream of NRAS G12D.
# THP-1 cells (ATCC TIB-202) expressing G12D were maintained in RPMI-1640 medium supplemented with 10% fetal bovine serum (FBS), 0.05 mM 2-mercaptoethanol, and penicillin/streptomycin. Cells (20,000/well) were seeded onto a 384 well plate in 20 μL of HBSS supplemented with 0% or 10% FBS. Cells were incubated in the absence or presence of various concentrations of test compound (final 1% DMSO) for 2 hours. p-ERK expression was assessed using the AlphaLISA SureFire Ultra p-ERK1/2 (Thr202/Tyr204) (PerkinElmer®, ALSU-PERK-A10K) following manufacturer recommendation. Plates were read on a PerkinElmer® Envision Multimode plate reader. Dose-response curves were analyzed using IC50 regression curve fitting (GeneData Screener). Curves were plotted as a percent control and normalized by high controls without inhibitor (100%), and low controls (0%) containing 1 μM of trametinib, a potent MEK inhibitor.
IC50 [nM],"IC50 (Homo sapiens, THP-1, 2 h) [nM]",Compound
116,–,"C#Cc1c(F)ccc2cc(O)cc(-c3ncc4c([C@H]5[C@@H]6CN[C@@H](C(=O)OC)[C@@H]65)nn(C)c4c3F)c12 (racemic) [Example 47, methyl rac-(2R,6S)-6-[6-(8-ethynyl-7-fluoro-3-hydroxy-1-naphthyl)-7-fluoro-1-methyl-pyrazolo[4,3-c]pyridin-3-yl]-3-azabicyclo[3.1.0]hexane-2-carboxylate]"
6470,–,"C#Cc1c(F)ccc2cc(O)cc(-c3ncc4c([C@H]5[C@@H]6CN[C@@H](C(=O)OC)[C@@H]65)nn(C)c4c3F)c12 (racemic) [Example 48, methyl rac-(2R,6S)-6-[6-(8-ethynyl-7-fluoro-3-hydroxy-1-naphthyl)-7-fluoro-1-methyl-pyrazolo[4,3-c]pyridin-3-yl]-3-azabicyclo[3.1.0]hexane-2-carboxylate]"
–,> 10000,"C#Cc1c(F)ccc2cc(O)cc(-c3nc(N(C)C)c4c(N5C[C@H]6CC[C@@H]5CN6)nn(C5CC5)c4c3F)c12 (stereo in doubt) [Example 92, 4-(3-((1R,4R)-2,5-diazabicyclo[2.2.2]octan-2-yl)-1-cyclopropyl-4-(dimethylamino)-7-fluoro-1H-pyrazolo[4,3-c]pyridin-6-yl)-5-ethynyl-6-fluoronaphthalen-2-ol]"
–,> 50000,"C#Cc1c(F)ccc2cc(O)cc(-c3ncc4c(N5C[C@@H](C)N[C@@H](C)C5)nn(C)c4c3F)c12 [Example 32, 4-[3-[(3R,5S)-3,5-dimethylpiperazin-1-yl]-7-fluoro-1-methyl-pyrazolo[4,3-c]pyridin-6-yl]-5-ethynyl-6-fluoro-naphthalen-2-ol]"
–,6670,"C#Cc1c(F)ccc2cc(O)cc(-c3ncc4c(N5C[C@@H]6CNC[C@@H]65)nn(C5CC5)c4c3F)c12 [Example 37, 4-[1-cyclopropyl-3-[(1S,5R)-3,6-diazabicyclo[3.2.0]heptan-6-yl]-7-fluoro-pyrazolo[4,3-c]pyridin-6-yl]-5-ethynyl-6-fluoro-naphthalen-2-ol]"
–,> 10000,"C#Cc1c(F)ccc2cc(O)cc(-c3ncc4c(C5C(=O)C6CCC5CN6)nn(C)c4c3F)c12 (stereo not shown) [Example 41, 5-[6-(8-ethynyl-7-fluoro-3-hydroxy-1-naphthyl)-7-fluoro-1-methyl-pyrazolo[4,3-c]pyridin-3-yl]-2-azabicyclo[2.2.2]octan-6-one]"
–,> 10000,"C#Cc1c(F)ccc2cc(O)cc(-c3ncc4c(C5CC6CCC5CN6)nn(C)c4c3F)c12 (stereo not shown) [Example 43, 4-[3-(2-azabicyclo[2.2.2]octan-5-yl)-7-fluoro-1-methyl-pyrazolo[4,3-c]pyridin-6-yl]-5-ethynyl-6-fluoro-naphthalen-2-ol]"
–,490,"C#Cc1c(F)ccc2cc(O)cc(-c3nc(CCC#N)c4c([C@H]5[C@@H]6CNC[C@@H]65)nn(C5CC5)c4c3F)c12 [Example 50, 3-[3-(3-azabicyclo[3.1.0]hexan-6-yl)-1-cyclopropyl-6-(8-ethynyl-7-fluoro-3-hydroxy-1-naphthyl)-7-fluoro-pyrazolo[4,3-c]pyridin-4-yl]propanenitrile]"
–,250,"C#Cc1c(F)ccc2cc(O)cc(-c3nc(C)c4c([C@H]5[C@@H]6CNC[C@@H]65)nn(C5CC5)c4c3F)c12 [Example 51, 4-[3-(3-azabicyclo[3.1.0]hexan-6-yl)-1-cyclopropyl-7-fluoro-4-methyl-pyrazolo[4,3-c]pyridin-6-yl]-5-ethynyl-6-fluoro-naphthalen-2-ol]"
–,3890,"C#Cc1c(F)ccc2cc(O)cc(-c3nc(Cc4ccccc4)c4c([C@H]5[C@@H]6CNC[C@@H]65)nn(C5CC5)c4c3F)c12 [Example 52, 4-[3-(3-azabicyclo[3.1.0]hexan-6-yl)-4-benzyl-1-cyclopropyl-7-fluoro-pyrazolo[4,3-c]pyridin-6-yl]-5-ethynyl-6-fluoro-naphthalen-2-ol]"
–,5.81,"C#Cc1c(F)ccc2cc(O)cc(-c3nc(C(=C)C)c4c([C@H]5[C@@H]6CNC[C@@H]65)nn(C5CC5)c4c3F)c12 [Example 53, 4-(3-((1R,5S,6r)-3-azabicyclo[3.1.0]hexan-6-yl)-1-cyclopropyl-7-fluoro-4-(prop-1-en-2-yl)-1H-pyrazolo[4,3-c]pyridin-6-yl)-5-ethynyl-6-fluoronaphthalen-2-ol]"
–,16.4,"C#Cc1c(F)ccc2cc(O)cc(-c3nc(C4CCC4)c4c([C@H]5[C@@H]6CNC[C@@H]65)nn(C5CC5)c4c3F)c12 [Example 54, 4-[3-(3-azabicyclo[3.1.0]hexan-6-yl)-4-cyclobutyl-1-cyclopropyl-7-fluoro-pyrazolo[4,3-c]pyridin-6-yl]-5-ethynyl-6-fluoro-naphthalen-2-ol]"
–,499,"C#Cc1c(F)ccc2cc(O)cc(-c3nc(C(F)(F)F)c4c([C@H]5[C@@H]6CNC[C@@H]65)nn(C5CC5)c4c3F)c12 [Example 55, 4-[3-(3-azabicyclo[3.1.0]hexan-6-yl)-1-cyclopropyl-7-fluoro-4-(trifluoromethyl)pyrazolo[4,3-c]pyridin-6-yl]-5-ethynyl-6-fluoro-naphthalen-2-ol]"
–,152,"C#Cc1c(F)ccc2cc(O)cc(-c3nc(C(C)(C)O)c4c([C@H]5[C@@H]6CNC[C@@H]65)nn(C5CC5)c4c3F)c12 [Example 56, 4-[3-(3-azabicyclo[3.1.0]hexan-6-yl)-1-cyclopropyl-7-fluoro-4-(1-hydroxy-1-methyl-ethyl)pyrazolo[4,3-c]pyridin-6-yl]-5-ethynyl-6-fluoro-naphthalen-2-ol]"
–,> 10000,"C#Cc1c(F)ccc2cc(O)cc(-c3nc(OC4COC4)c4c([C@H]5[C@@H]6CNC[C@@H]65)nn(C5CC5)c4c3F)c12 [Example 71, 4-(3-((1R,5S,6r)-3-azabicyclo[3.1.0]hexan-6-yl)-1-cyclopropyl-7-fluoro-4-(oxetan-3-yloxy)-1H-pyrazolo[4,3-c]pyridin-6-yl)-5-ethynyl-6-fluoronaphthalen-2-ol]"
–,89.2,"C#Cc1c(F)ccc2cc(O)cc(-c3nc(N(C)C)c4c([C@H]5[C@@H]6CNC[C@@H]65)nn(C5CC5)c4c3F)c12 [Example 78, 4-(3-((1R,5S,6r)-3-azabicyclo[3.1.0]hexan-6-yl)-1-cyclopropyl-4-(dimethylamino)-7-fluoro-1H-pyrazolo[4,3-c]pyridin-6-yl)-5-ethynyl-6-fluoronaphthalen-2-ol]"
–,603,"C#Cc1c(F)ccc2cc(O)cc(-c3nc(N4CCC4)c4c([C@H]5[C@@H]6CNC[C@@H]65)nn(C5CC5)c4c3F)c12 [Example 79, 4-(4-(azetidin-1-yl)-3-((1R,5S,6r)-3-azabicyclo[3.1.0]hexan-6-yl)-1-cyclopropyl-7-fluoro-1H-pyrazolo[4,3-c]pyridin-6-yl)-5-ethynyl-6-fluoronaphthalen-2-ol]"
–,126,"C#Cc1c(F)ccc2cc(O)cc(-c3nc(N(CC)CC)c4c([C@H]5[C@@H]6CNC[C@@H]65)nn(C5CC5)c4c3F)c12 [Example 80, 4-(3-((1R,5S,6r)-3-azabicyclo[3.1.0]hexan-6-yl)-1-cyclopropyl-4-(diethylamino)-7-fluoro-1H-pyrazolo[4,3-c]pyridin-6-yl)-5-ethynyl-6-fluoronaphthalen-2-ol]"

Compound,IC50 [nM],"IC50 (Homo sapiens, THP-1, 2 h) [nM]"
"C#Cc1c(F)ccc2cc(O)cc(-c3ncc4c(N5C6CNCC5C6)nn(C)c4c3F)c12 [Example 35, 4-[3-(3,6-diazabicyclo[3.1.1]heptan-6-yl)-7-fluoro-1-methyl-pyrazolo[4,3-c]pyridin-6-yl]-5-ethynyl-6-fluoro-naphthalen-2-ol]",–,4660
